Patent publication US20260285850A1, “SUBSTITUTED OXAZOLIDINONES AND IMIDAZOLINONES AS HERBICIDES” (FMC CORPORATION, priority 2023, published 2026)

Key:
Format in all cases: in vivo
[1] = test system: ducksalad (Heteranthera limosa); experiment: Test B flooded paddy test, visual plant response rating 0-100; conditions: 250 g ai/ha, Flood, applied to paddy water, evaluated after 13 days
How it was run: (§1)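 Paddy-water application: test compounds went directly into water flooded 3 cm above the soil surface, with plants at 2 leaves. After a 13-day greenhouse period, responses were judged by eye relative to controls; a dash marks an untested entry.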

rice (Oryza sativa) = experiment: as above; conditions: 250 g ai/ha, Flood, applied to paddy water, evaluated after 13 days
How it was run: as §1

[2] = test system: barnyardgrass (Echinochloa crusgalli); experiment: as above; conditions: 250 g ai/ha, Flood, applied to paddy water, evaluated after 13 days
How it was run: as §1

[3] = test system: sedge, umbrella (small-flower umbrella sedge, Cyperus difformis); experiment: as above; conditions: 250 g ai/ha, Flood, applied to paddy water, evaluated after 13 days
How it was run: as §1

[4] = test system: palmer (palmer amaranth, palmer pigweed, Amaranthus palmeri); experiment: Test A preemergence soil spray, visual injury rating 0-100; conditions: 10 days, 0 = no effect, 100 = complete control
How it was run: (§2)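 Preemergence directed soil spray or postemergence spray (2-10 cm, 1-2 leaf); loam/sand mix; compound in non-phytotoxic solvent + surfactant. Greenhouse, 10 d. Visual injury vs untreated, 0 = none, 100 = complete control.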

[5] = test system: ragweed (common ragweed, Ambrosia artemisiifolia); experiment: as above; conditions: 10 days, 0 = no effect, 100 = complete control
How it was run: as §2

corn (Zea mays) [6] = experiment: as above; conditions: 10 days, 0 = no effect, 100 = complete control
How it was run: as §2

[7] = test system: oat, wild (wild oat, Avena fatua); experiment: as above; conditions: 10 days, 0 = no effect, 100 = complete control
How it was run: as §2

[8] = test system: green foxtail (Setaria viridis); experiment: as above; conditions: 10 days, 0 = no effect, 100 = complete control
How it was run: as §2

[9] = test system: ryegrass, Italian (italian ryegrass, Lolium multiflorum); experiment: as above; conditions: 10 days, 0 = no effect, 100 = complete control
How it was run: as §2

[10] = test system: blackgrass (Alopecurus myosuroides); experiment: as above; conditions: 10 days, 0 = no effect, 100 = complete control
How it was run: as §2

[11] = test system: barnyardgrass (Echinochloa crus-galli); experiment: as above; conditions: 10 days, 0 = no effect, 100 = complete control
How it was run: as §2

soybean (Glycine max) [12] = experiment: as above; conditions: 10 days, 0 = no effect, 100 = complete control
How it was run: as §2

kochia (Bassia scoparia) [13] = experiment: as above; conditions: 10 days, 0 = no effect, 100 = complete control
How it was run: as §2

[14] = test system: wheat (Triticum aestivum); experiment: as above; conditions: 10 days, 0 = no effect, 100 = complete control
How it was run: as §2

[15] = test system: palmer (palmer amaranth, palmer pigweed, Amaranthus palmeri); experiment: Test A postemergence application, visual injury rating 0-100; conditions: Postemergence
How it was run: as §2

[16] = test system: ragweed (common ragweed, Ambrosia artemisiifolia); experiment: as above; conditions: Postemergence
How it was run: as §2

corn (Zea mays) [17] = experiment: as above; conditions: Postemergence
How it was run: as §2

[18] = test system: oat, wild (wild oat, Avena fatua); experiment: as above; conditions: Postemergence
How it was run: as §2

[19] = test system: green foxtail (Setaria viridis); experiment: as above; conditions: Postemergence
How it was run: as §2

[20] = test system: ryegrass, Italian (italian ryegrass, Lolium multiflorum); experiment: as above; conditions: Postemergence
How it was run: as §2

[21] = test system: blackgrass (Alopecurus myosuroides); experiment: as above; conditions: Postemergence
How it was run: as §2

[22] = test system: barnyardgrass (Echinochloa crus-galli); experiment: as above; conditions: Postemergence
How it was run: as §2

soybean (Glycine max) [23] = experiment: as above; conditions: Postemergence
How it was run: as §2

[24] = test system: galium (catchweed bedstraw, Galium aparine); experiment: as above; conditions: Postemergence
How it was run: as §2

[25] = test system: horseweed (Erigeron canadensis); experiment: as above; conditions: Postemergence
How it was run: as §2

kochia (Bassia scoparia) [26] = experiment: as above; conditions: Postemergence
How it was run: as §2

[27] = test system: wheat (Triticum aestivum); experiment: as above; conditions: Postemergence
How it was run: as §2

[28] = 31 g ai/ha, greenhouse 10 days, 0 no effect, 100 complete control
[29] = 125 g ai/ha, 10 days, 0 is no effect, 100 is complete control

## CC(C)COC(=O)C1C=CC(NC(=O)C2(C)CN(c3cc(Cl)cc(Cl)c3)C(=O)O2)C1 (stereo not shown) [Compound 66]
[1]
  Plant response rating, Ducksalad (0 to 100 scale, 0 is no effect and 100 is complete control): 95
Rice (Oryza sativa)
  Plant response rating, Rice (0 to 100 scale, 0 is no effect and 100 is complete control): 15
[2]
  Plant response rating, Barnyardgrass (0 to 100 scale, 0 is no effect and 100 is complete control): 75
[3]
  Plant response rating, Sedge, Umbrella (0 to 100 scale, 0 is no effect and 100 is complete control): 100
[4]; 31 g ai/ha
  Amaranth, Palmer plant response rating (0-100): 90
[4]; 125 g ai/ha
  Amaranth, Palmer plant response rating (0 to 100 scale): 100
[5]; 31 g ai/ha
  Ragweed plant response rating (0-100): 0
[5]; 125 g ai/ha
  Ragweed plant response rating (0 to 100 scale): 70
Corn (Zea mays) [6]; 31 g ai/ha
  Corn plant response rating (0-100): 0
Corn (Zea mays) [6]; 125 g ai/ha
  Corn plant response rating (0 to 100 scale): 60
[7]; 31 g ai/ha
  Oat, Wild plant response rating (0-100): 0
[7]; 125 g ai/ha
  Oat, Wild plant response rating (0 to 100 scale): 90
[8]; 31 g ai/ha
  Foxtail, Green plant response rating (0-100): 20
[8]; 125 g ai/ha
  Foxtail, Green plant response rating (0 to 100 scale): 100
[9]; 31 g ai/ha
  Ryegrass, Italian plant response rating (0-100): 50
[9]; 125 g ai/ha
  Ryegrass, Italian plant response rating (0 to 100 scale): 90
[10]; 31 g ai/ha
  Blackgrass plant response rating (0-100): 30
[10]; 125 g ai/ha
  Blackgrass plant response rating (0 to 100 scale): 80
[11]; 31 g ai/ha
  Barnyardgrass plant response rating (0-100): 50
[11]; 125 g ai/ha
  Barnyardgrass plant response rating (0 to 100 scale): 90
Soybean (Glycine max) [12]; 31 g ai/ha
  Soybean plant response rating (0-100): 0
Soybean (Glycine max) [12]; 125 g ai/ha
  Soybean plant response rating (0 to 100 scale): 0
Kochia (Bassia scoparia) [13]; 31 g ai/ha
  Kochia plant response rating (0-100): 0
Kochia (Bassia scoparia) [13]; 125 g ai/ha
  Kochia plant response rating (0 to 100 scale): 30
[14]; 31 g ai/ha
  Wheat plant response rating (0-100): 10
[14]; 125 g ai/ha
  Wheat plant response rating (0 to 100 scale): 70
[15]; [28]
  Amaranth, Palmer / Pigweed, Palmer plant response rating (0 to 100 scale): 90
[15]; [29]
  Amaranth, Palmer / Pigweed, Palmer plant response rating (0 to 100 scale): 90
[16]; [28]
  Ragweed plant response rating (0 to 100 scale): 70
[16]; [29]
  Ragweed plant response rating (0 to 100 scale): 80
Corn (Zea mays) [17]; [28]
  Corn plant response rating (0 to 100 scale): 90
Corn (Zea mays) [17]; [29]
  Corn plant response rating (0 to 100 scale): 100
[18]; [28]
  Oat, Wild plant response rating (0 to 100 scale): 90
[18]; [29]
  Oat, Wild plant response rating (0 to 100 scale): 90
[19]; [28]
  Foxtail, Green plant response rating (0 to 100 scale): 70
[19]; [29]
  Foxtail, Green plant response rating (0 to 100 scale): 90
[20]; [28]
  Ryegrass, Italian plant response rating (0 to 100 scale): 70
[20]; [29]
  Ryegrass, Italian plant response rating (0 to 100 scale): 100
[21]; [28]
  Blackgrass plant response rating (0 to 100 scale): 90
[21]; [29]
  Blackgrass plant response rating (0 to 100 scale): 90
[22]; [28]
  Barnyardgrass plant response rating (0 to 100 scale): 100
[22]; [29]
  Barnyardgrass plant response rating (0 to 100 scale): 100
Soybean (Glycine max) [23]; [28]
  Soybean plant response rating (0 to 100 scale): 80
Soybean (Glycine max) [23]; [29]
  Soybean plant response rating (0 to 100 scale): 80
[24]; [28]
  Galium plant response rating (0 to 100 scale): 70
[24]; [29]
  Galium plant response rating (0 to 100 scale): 80
[25]; [28]
  Horseweed plant response rating (0 to 100 scale): 40
[25]; [29]
  Horseweed plant response rating (0 to 100 scale): 70
Kochia (Bassia scoparia) [26]; [28]
  Kochia plant response rating (0 to 100 scale): 70
Kochia (Bassia scoparia) [26]; [29]
  Kochia plant response rating (0 to 100 scale): 80
[27]; [28]
  Wheat plant response rating (0 to 100 scale): 90
[27]; [29]
  Wheat plant response rating (0 to 100 scale): 90
